Here are results for three compounds from PMC6831736, “Highly Variable Pharmacokinetics of Tyramine in Humans and Polymorphisms in OCT1, CYP2D6, and MAO-A” (Frontiers in Pharmacology, 2019).

The term Cmax denotes the maximum level reached in the sampled fluid or tissue. A word on the half-life: it is the time needed for the level to fall by half in the phase considered. A word on the AUC(0-inf): it is total exposure, with the tail of the curve extrapolated. Broadly, the Tmax is the time from dosing to the highest level. Usually bioavailability stands for the share of a dose that reaches the circulation, judged against a reference dose that is usually intravenous.

Like-named read-outs stand apart in the source and are kept apart here.

A short description of data set [1]: clinical. As to the method:
In this open-label pharmacokinetic/pharmacodynamic study, pharmacokinetics and effects of 400 mg oral tyramine were analysed in relation to MAO-A, CYP2D6, and OCT1 genotypes in 88 healthy volunteers. Eighty percent of the participants were unselected volunteers from Göttingen area in Germany; the remaining 20% were selected from an internal database to enrich the study sample with rare OCT1 or CYP2D6 variants. With widely accepted statistical criteria (type I error of 0.05 and type II error of 0.2), at least 10 subjects with genetically defined very low activity of OCT1 or CYP2D6 and a similar or higher number without deficiency should be sufficient to confirm a relevant 50% change in tyramine plasma AUC as a result of genetic variation. Because of the very diverse and not pharmacokinetic-based literature data on the functional effects of MAO-A polymorphisms, no power calculation could be performed with regard to MAO-A genotypes. However, a sample size of nearly a hundred individuals should be sufficient to find genotypes with a population frequency of at least 5%. All volunteers gave their written informed consent before participation in the study. The study was approved by the ethics committee of the University of Göttingen. It was registered at the German Clinical Trials Registry and the World Health Organization International Clinical Trials Registry Platform (DRKS00008915; https://www.drks.de/DRKS00008915).
Plasma and urine concentrations of tyramine and 4-HPAA were analysed by HPLC with tandem mass spectrometry using tyramine-d4 (Santa Cruz Biotechnology, Inc., Dallas, TX, USA) as internal standard. GR 49336 (5-[[(methylamino)sulfonyl]methyl]-1H-indole-3-acetic acid; Santa Cruz Biotechnology, Inc.) was used as internal standard for 4-HPAA. The analytical standards for tyramine were obtained from Fluka (Morristown, NJ, USA) and for 4-HPAA from Sigma-Aldrich (Darmstadt, Germany). The limit of detection for tyramine was 0.1 ng/ml in plasma and 10 ng/ml in urine; for 4-HPAA, it was 5 ng/ml in plasma and 0.5 µg/ml in urine. The limit of quantification for tyramine was 0.25 ng/ml in plasma and 15 ng/ml in urine; for 4-HPAA, it was 15 ng/ml in plasma and 1.5 µg/ml in urine.
200 µl of plasma were precipitated in 1.5 ml Eppendorf tubes with 400 µl acetonitrile/methanol (9:1, v:v), including the internal standards. After 10 min on ice, tubes were centrifuged for 30 min at 13,000 rpm, and 300 µl of the supernatant were transferred to a microtiter plate. The supernatant was evaporated using nitrogen and re-dissolved in 0.1% formic acid. 10 µl were injected into the HPLC system. Chromatography was performed using a Shimadzu Nexera system with an API 4000 detector. Separation for analysis of tyramine and methyltyramine was performed at 40°C on a Brownlee SPP RP-Amide 100 x 4.6 mm, 2.7 µm particle size, column using water with 0.1% (v/v) formic acid, 2.57% acetonitrile, and 0.43% methanol as eluent. Detection (positive mode) of tyramine was based on the masses 139.1/121.1 and for tyramine-d4 on 142.0/125.0. Calibration range was 0.5 to 200 µg/l with coefficients of variation of 4.6%, 2.8%, and 2.6% at 2, 20, and 150 µg/l, respectively. Analysis of 4-HPAA was performed on the same system, using 0.1% formic acid, 17.14% acetonitrile, and 2.86% methanol as eluent and detection in the negative mode based on the masses 151.0/107.2 for 4-HPAA and 281.2/142.1 for the internal standard. Calibration range was between 0.03 and 20 mg/l and coefficients of variation were 4.7%, 4.2%, and 3.7% at 1, 5, and 15 mg/l.
Pharmacokinetic parameters were calculated by non-compartmental analysis using Phoenix 64 WinNonlin version 6 (Certara USA, Inc., Princeton NJ, USA). AUCinf of tyramine was calculated from time of dosing using the linear/log trapezoidal rule, and extrapolated to inﬁnity based on the last predicted concentration and using the terminal elimination rate constant (lambda z).

Data set [2] relates to healthy volunteers. The settings on record: in vivo.
Description: (§1) To avoid interference by dietary tyramine, food and drink (including alcohol) consumption was prohibited from the evening before the study day until the last blood and urine sampling, except for water at any time and bread with butter 3 h before and 3 h after tyramine administration. A medical examination and electrocardiogram measurement were conducted 3 h prior to tyramine administration. Blood samples were drawn 3 h before and at the following times after tyramine intake: 15, 30, and 45 min as well as 1, 1.5, 2, 2.5, 3, 4, and 6 h. Urine samples were taken from 3 h to 10 min before tyramine administration as well as from 0 to 3 h and from 3 to 6 h after. Blood samples were centrifuged (10 min, 4°C, 4,000 rpm) and plasma and urine samples were stored at −20°C until analysis. Blood pressure and heart rate were measured 3 h, 35 min, and 10 min before tyramine administration, and subsequently in 15 min intervals until 6 h after. In a subgroup of eight participants, blood pressure was continuously monitored based on an analysis of pulse pressure curves using the SOMNOtouch™ NIPB non-invase system (SOMNOmedics GmbH, Randersacker, Germany). An orthostatic blood pressure test was performed 10 min before as well as 30 min and 1.5 h after tyramine intake. Pupillometry was performed 35 min prior to, and 1, 2, and 6 h after tyramine administration. Participants were asked to report on symptoms possibly related to tyramine (headache, fatigue, sleepiness, visual or hearing impairments, restlessness, nausea, dizziness, dry mouth, tremor, sensation of cold, and heart palpitation) using visual analogue scales 3 h before and 1, 3, and 6 h after tyramine intake.
(§2) The primary endpoint was the AUC of tyramine in plasma. Secondary endpoints were the other pharmacokinetic parameters of tyramine and its metabolite 4-HPAA, as well as heart rate, blood pressure, pupil size effects, and possible adverse events (headache, fatigue, visual or hearing impairments, restlessness, nausea, dizziness, dry mouth, tremor, hypothermia, heart palpitations). In addition, the cumulative amounts of tyramine and 4-HPAA excreted in urine were measured over time periods of 3 h before (baseline) and 6 h after application.
The test system of data set [3] is healthy volunteers. The data set can be described thus: Adverse events, adverse symptoms (visual analogue scales) and pupillometry after 400 mg oral tyramine.
Description: as §1, §2
Details of data set [4]: method as in earlier work. The settings on record: fasting state; upwards; ref VanDenBerg et al., 2003; Di Stefano et al., 2013; Gillman, 2018; cited from earlier work.
Data set [5] deals with healthy volunteers. The data set can be described thus: Blood pressure and heart rate effects after 400 mg oral tyramine. Type of data set: in vivo, human. The text has this: Purity was confirmed by HPLC.
The test system of data set [6] is organic cation transporter 1 (OCT1, or SLC22A1). Set-up: method as in Breidert et al., 1998. To be noted: ref Breidert et al., 1998; cited from earlier work.
Where [7] appears, read: human, in vivo, po, 400 mg, t max.
Where [8] appears, read: human, in vivo, po, 400 mg, tmax, range.

As to `O=C(O)Cc1ccc(O)cc1` [4-HPAA, 4-hydroxyphenylacetic acid], in data set [1] (human, in vivo), the “Baseline recovery in the urine cumulated for 3 h prior to tyramine administration” value is 2.65 (0.67–9.05) mg and the concentration at -3 h was 70 ng/mL. Moreover, the “participants with baseline plasma concentration below the limit of quantification” value in data set [1] (human, in vivo, -3 h) came out at 84%. Besides, the “dose recovered in urine in form of 4-HPAA” value in data set [1] (human, in vivo, po) was found to be 76.8%. For the same compound, in data set [1] (human, in vivo, po, 400 mg), the CL renal stood at 240 mL/min, the peak level (Cmax) was 9040 ng/mL, the half-life worked out at 1.22 h and the “variation of 4-HPAA systemic exposure (plasma AUC)” value was “up to 3 fold”. The compound further gave an AUC(0-inf) in data set [1] (human, in vivo, po, 400 mg, AUC inf) of 21600 ng·h/mL. In addition, the Tmax in data set [1] (setting [7]) is 1.47 h. For the same compound, the Tmax in data set [1] (setting [8]) lay in the range of 0.483 to 2.5 h. For the same compound, in data set [2], the “correlation of systemic concentration with dizziness” value was “positively”, the “correlation of systemic concentration with dry mouth” value is “weakly”, the “correlation of systemic concentration with headache” value is “positively” and the “correlation of systemic concentration with heart palpitation” value was “positively”.

As for `CNCCc1ccc(O)cc1` [N-methyltyramine], the “Plasma and urine concentrations” value in data set [1] (400 mg oral tyramine, below the limit of detection) is under 1 ng/mL.

In the case of `NCCc1ccc(O)cc1` [Tyramine, tyramine], the serious adverse events result in data set [3] (400 mg oral tyramine, 88 healthy volunteers) is “no serious adverse events”. In data set [3] (repeated pupillometric analyses), the “pupil size and pupil reaction to light before and after tyramine administration” value is on record as “no difference”. Further, the “correlation of systemic concentration with heart palpitation” value in data set [3] (visual analogue scales, two-tailed, p < 0.001) is “Positive correlations”. The “correlation of systemic concentration with inner restlessness” value in data set [3] (visual analogue scales, two-tailed, p = 0.02) was “Positive correlations”. For the same compound, in data set [4], the “oral tyramine dose at which the pressor response occurs” value is at least 200 mg. In addition, in data set [5] (400 mg oral tyramine), the “correlation of rise in systolic blood pressure with systemic tyramine concentration” value was “correlated strongly”, the “participants with blood pressure peaks by >40 mmHg above baseline” value is given as “less than 10%”, the “participants with increases in systolic blood pressure less than 40 mmHg” value is 90% and the “tyramine concentrations at which blood pressure peaks by >40 mmHg above baseline were observed” value was over 60 µg/L. Further, in data set [5] (400 mg oral tyramine), the “volunteers with systolic blood pressure increased by more than 10 mmHg” value is listed as 71%. Further, the “tyramine plasma concentration at which diastolic blood pressure increased” value in data set [5] (concentration-effect analyses) is given as “higher than 100 µg/l”. Also, the “tyramine plasma concentration at which systolic blood pressure rises” value in data set [5] (concentration-effect analyses, and above) is at least 60 µg/L. Also, the “time of blood pressure reaction after tyramine administration” value in data set [5] (one participant, much delayed) turned out to be 90 min. The total exposure AUC(0-inf) in data set [1] (female, human, in vivo, po, 400 mg) was 0.19 µM·h. The same compound showed an area under the curve AUC(0-inf) in data set [1] (female, human, in vivo, po, 400 mg, Mean plasma AUCinf) of 0.528 µM·h. Also, in data set [1] (human, in vivo), the “Baseline recovery in the urine cumulated for 3 h prior to tyramine administration” value is 0.055 (0.007–0.222) mg; the “effect of MAO-A genotypes on tyramine pharmacokinetics or its metabolism to 4-HPAA” value was “no significant effects”; the “effect of polymorphisms in OCT1 and CYP2D6 on tyramine pharmacokinetics or pharmacodynamics” value was “did not significantly affect”. In data set [1] (human, in vivo, -3 h), the Baseline plasma concentration is 0.39 (0.25 & 0.53) ng/ml and the “participants with baseline plasma concentration below the limit of quantification” value turned out to be 98%. The compound further yielded a bioavailability in data set [1] (human, in vivo, po) of under 1%. In addition, in data set [1] (human, in vivo, po, 400 mg), the area under the curve AUC(0-inf) was 62.3 ng·h/mL, the CL renal stood at 260 mL/min, the highest concentration (Cmax) is 87 ng/mL and the half-life amounted to 0.917 h. Also, the time of peak concentration (Tmax) in data set [1] (setting [7]) was 0.767 h. The Tmax in data set [1] (setting [8]) fell in the range of 0.217 to 2 h. In addition, the OCT1 substrate affinity result in data set [6] is on record as “substrate with nanomolar affinity”.
